Results as given in patent US20250144067A1, “PERSONALIZED STARVATION THERAPY FOR CANCER” (Faeth Therapeutics, Inc., priority 2021, published 2025).
Where a name gives a salt, the structure may show the parent alone. Read-outs that look alike come from different tables or passages of the source.

Legend:
[1] = test system: NCI-H292 lung cancer cells; assay: FDA drug screening, complete media vs cholesterol-free media without statin (TABLE 1); assay type: cell-based, human
[2] = test system: NCI-H292 lung cancer cells; assay: FDA drug screening, complete media vs cholesterol-free media with simvastatin (TABLE 2); assay type: cell-based, human
[3] = NCI-H292 cells, cholesterol-free media without statin, FDA drug library screen
[4] = NCI-H292 cells, complete media, FDA drug library screen
[5] = NCI-H292 cells, FDA drug library screen, cholesterol-free media with simvastatin 0.04 μM
[6] = NCI-H292 cells, FDA drug library screen, complete media
[7] = complete media minus cholesterol-free media + simvastatin, […]
[8] = complete vs cholesterol-free media, >0 enhanced anti-cancer activity, about 0 neutral, <0 antagonist
[9] = NCI-H292 cells, cholesterol-free media with simvastatin 0.04 μM, cell growth value in FDA drug screen
[10] = NCI-H292 cells, complete media, cell growth value in FDA drug screen
[11] = complete media minus cholesterol-free media + simvastatin, >0 enhanced anti-cancer activity, about 0 neutral, <0 antagonist
[12] = NCI-H292 cells, cholesterol-free media without statin
[13] = complete vs cholesterol-free media, greater than 0 enhanced anti-cancer activity, about 0 neutral, below 0 antagonists
[14] = Complete minus Cholesterol-free, >0 enhanced anti-cancer activity, about 0 neutral, <0 antagonist
[15] = NCI-H292 cells, cholesterol-free media with simvastatin 0.04 μM, FDA drug library screen (TABLE 2)
[16] = NCI-H292 cells, complete media, FDA drug library screen (TABLE 2)
[17] = complete media minus cholesterol-free media + simvastatin (0.04 μM), >0 enhanced anti-cancer activity, about 0 neutral, <0 antagonist
[18] = NCI-H292 cells, drug in cholesterol-free media with simvastatin 0.04 μM
[19] = NCI-H292 cells, drug in complete media
[20] = complete media vs cholesterol-free media + simvastatin (0.04 μM), >0 enhanced anti-cancer activity, about 0 neutral, <0 antagonist
[21] = complete vs cholesterol-free media, […]
[22] = complete media vs cholesterol-free media + simvastatin (0.04 μM), […]
[23] = Complete minus Cholesterol-free, greater than 0 enhanced anti-cancer activity, about 0 neutral, below 0 antagonists
[24] = NCI-H292 cells in cholesterol-free media without statin
[25] = NCI-H292 cells in complete media

## CN(C)C(=O)c1ccc(S(=O)(=O)c2ccc(NC(=O)[C@@](C)(O)C(F)(F)F)c(Cl)c2)cc1 [AZD7545]
[1]; Complete minus Cholesterol-free, […]
  Difference: −0.01
[1]; [3]
  Cholesterol-free: 0.721
[1]; [4]
  Complete: 0.7125
[2]; [5]
  Cholesterol-free media + simvastatin (0.04 μM): 0.8136
[2]; [6]
  Complete Media: 1.088
[2]; [7]
  Difference: 0.27

## COCC1=C(C(=O)OC(C)OC(=O)OC(C)C)N2C(=O)[C@@H](NC(=O)/C(=N\OC)c3csc(N)n3)[C@H]2SC1 (stereo partly shown) [Cefpodoxime Proxetil]
[1]; [3]
  Cholesterol-free: 1.085
[1]; [4]
  Complete: 1.311
[1]; [8]
  Difference: 0.23
[2]; [9]
  Cholesterol-free media + simvastatin (0.04 μM): 1.112
[2]; [10]
  Complete Media: 1.162
[2]; [11]
  Difference: 0.05

## OC[C@H]1O[C@@H](n2cnc3c2NC=NC[C@H]3O)C[C@@H]1O [Pentostatin]
[1]
  Cholesterol-free: 1.242
  Complete: 0.8025
  Difference: −0.44
[2]
  Cholesterol-free media + simvastatin (0.04 μM): 1.49
  Complete Media: 1.245
  Difference: −0.25

## O=c1[nH]c2ccccc2n1CCN1CCN(c2cccc(C(F)(F)F)c2)CC1 [Flibanserin]
[1]; [12]
  Cholesterol-free: 1.364
[1]; NCI-H292 cells, complete media
  Complete: 0.9648
[1]; [13]
  Difference: −0.40
[2]; [9]
  Cholesterol-free media + simvastatin (0.04 μM): 1.01
[2]; [10]
  Complete Media: 1.089
[2]; [11]
  Difference: 0.08

## Nc1ccn([C@@H]2O[C@H](CO)[C@@H](O)C2(F)F)c(=O)n1 [Gemcitabine (hydrochloride)]
[1]; [14]
  Difference: −0.04
[1]; [3]
  Cholesterol-free: 0.05262
[1]; [4]
  Complete: 0.01403
[2]; [15]
  Cholesterol-free media + simvastatin (0.04 μM): 0.04392
[2]; [16]
  Complete Media: 0.02306
[2]; [17]
  Difference: −0.02

## NC(=NCc1ccccc1)NC(=O)c1nc(Cl)c(N)nc1N [Benzamil (hydrochloride)]
[1]; [14]
  Difference: −0.30
[1]; [12]
  Cholesterol-free: 0.9643
[1]; NCI-H292 cells, complete media
  Complete: 0.6686
[2]; [15]
  Cholesterol-free media + simvastatin (0.04 μM): 0.8193
[2]; [16]
  Complete Media: 0.8118
[2]; [17]
  Difference: −0.01

## Nc1ccc(S(=O)(=O)NC(=O)c2ccccc2)cc1 [Sulfabenzamide]
[1]; [12]
  Cholesterol-free: 1.412
[1]; NCI-H292 cells, complete media
  Complete: 1.023
[1]; [13]
  Difference: −0.39
[2]; [18]
  Cholesterol-free media + simvastatin (0.04 μM): 1.231
[2]; [19]
  Complete Media: 1.041
[2]; [20]
  Difference: −0.19

## CCN1CCN(C(=O)N[C@@H](C(=O)N[C@@H]2C(=O)N3C(C(=O)O)=C(CSc4nnnn4C)CS[C@H]23)c2ccc(O)cc2)C(=O)C1=O [Cefoperazone (sodium salt)]
[1]; [3]
  Cholesterol-free: 1.002
[1]; [8]
  Difference: 0.17
[2]; [18]
  Cholesterol-free media + simvastatin (0.04 μM): 1.213
[2]; [19]
  Complete Media: 0.9749
[2]; [20]
  Difference: −0.24

## CC[C@H](C)C(=O)N1CCC(NC(=O)Nc2ccc(OC(F)(F)F)c(F)c2)CC1 [EC5026]
[1]; [12]
  Cholesterol-free: 1.148
[1]; NCI-H292 cells, complete media
  Complete: 0.7425
[1]; [21]
  Difference: −0.41
[2]; [5]
  Cholesterol-free media + simvastatin (0.04 μM): 1.241
[2]; [6]
  Complete Media: 1.143
[2]; [22]
  Difference: −0.10

## CCc1c2c(nc3ccc(OC(=O)N4CCC(N5CCCCC5)CC4)cc13)-c1cc3c(c(=O)n1C2)COC(=O)[C@]3(O)CC [Irinotecan (hydrochloride trihydrate)]
[1]; Complete minus Cholesterol-free, greater than 0 enhanced anti-cancer activity, about 0 neutral, below 0 antagonist
  Difference: −0.10
[1]; NCI-H292 cells, FDA drug library screen, cholesterol-free media without statin
  Cholesterol-free: 0.3845
[1]; [6]
  Complete: 0.2808
[2]; [5]
  Cholesterol-free media + simvastatin (0.04 μM): 0.6283
[2]; [6]
  Complete Media: 0.5165
[2]; [20]
  Difference: −0.11

## NC(=O)Cc1cccc(C(=O)c2ccccc2)c1N [Nepafenac]
[1]; [23]
  Difference: −0.71
[1]; [24]
  Cholesterol-free: 1.612
[1]; [25]
  Complete: 0.8984
[2]; [15]
  Cholesterol-free media + simvastatin (0.04 μM): 1.737
[2]; [16]
  Complete Media: 1.699
[2]; [17]
  Difference: −0.04

## CC(C)C[C@H](NC(=O)[C@@H](O)[C@H](N)Cc1ccccc1)C(=O)O [Bestatin (hydrochloride)]
[1]; [12]
  Cholesterol-free: 1.217
[1]; NCI-H292 cells, complete media
  Complete: 0.9083
[1]; [13]
  Difference: −0.31
[2]; [5]
  Cholesterol-free media + simvastatin (0.04 μM): 1.299
[2]; [20]
  Difference: −0.15

## O=C(O)[C@H](CC(=O)N1C[C@H]2CCCC[C@H]2C1)Cc1ccccc1 [Mitiglinide (Calcium)]
[1]; [23]
  Difference: −0.81
[1]; [24]
  Cholesterol-free: 1.668
[1]; [25]
  Complete: 0.8559
[2]; [18]
  Cholesterol-free media + simvastatin (0.04 μM): 1.855
[2]; [19]
  Complete Media: 1.594
[2]; [20]
  Difference: −0.26

## CC(C)OC(=O)CCC/C=C\C[C@@H]1[C@@H](CC[C@@H](O)CCc2ccccc2)[C@H](O)C[C@@H]1O [Latanoprost]
[1]; [23]
  Difference: −0.48
[1]; [24]
  Cholesterol-free: 1.483
[1]; [25]
  Complete: 1.005
[2]; [15]
  Cholesterol-free media + simvastatin (0.04 μM): 1.031
[2]; [16]
  Complete Media: 0.9769
[2]; [17]
  Difference: −0.05

## O=C(O)Cc1ccccc1Nc1c(Cl)cccc1Cl [Diclofenac (diethylamine)]
[1]; [3]
  Cholesterol-free: 0.7838
[1]; [8]
  Difference: 0.36
[2]; [15]
  Cholesterol-free media + simvastatin (0.04 μM): 0.9893
[2]; [16]
  Complete Media: 0.9206
[2]; [17]
  Difference: −0.07

## CCCCOc1ccc(OCCCN2CCOCC2)cc1 [Pramocaine (hydrochloride)]
[1]; [12]
  Cholesterol-free: 1.301
[1]; NCI-H292 cells, complete media
  Complete: 0.9298
[1]; [13]
  Difference: −0.37
[2]; [5]
  Cholesterol-free media + simvastatin (0.04 μM): 0.6469
[2]; [6]
  Complete Media: 1.047
[2]; [11]
  Difference: 0.40

## CCCCCC(=O)O[C@]1(C(C)=O)CC[C@H]2[C@@H]3CCC4=CC(=O)CC[C@]4(C)[C@H]3CC[C@@]21C [Hydroxyprogesterone caproate]
[1]; [12]
  Cholesterol-free: 1.133
[1]; NCI-H292 cells, complete media
  Complete: 0.7393
[1]; [13]
  Difference: −0.39
[2]; [5]
  Cholesterol-free media + simvastatin (0.04 μM): 1.029
[2]; [6]
  Complete Media: 0.8959
[2]; [20]
  Difference: −0.13

## CCCCOC(=O)c1ccc(N)cc1 [Butamben]
[1]; [14]
  Difference: −0.20
[1]; [12]
  Cholesterol-free: 1.171
[1]; NCI-H292 cells, complete media
  Complete: 0.9712
[2]; NCI-H292 cells, FDA library drug in cholesterol-free media with simvastatin 0.04 μM
  Cholesterol-free media + simvastatin (0.04 μM): 1.665
[2]; NCI-H292 cells, FDA library drug in complete media
  Complete Media: 1.081
[2]; [20]
  Difference: −0.58

## CCN(CC)CCNC(=O)c1ccc(NC(C)=O)cc1 [N-Acetylprocainamide]
[1]; [3]
  Cholesterol-free: 1.279
[1]; [4]
  Complete: 1.656
[1]; [21]
  Difference: 0.38
[2]; [5]
  Cholesterol-free media + simvastatin (0.04 μM): 0.9234
[2]; [6]
  Complete Media: 0.8479
[2]; [22]
  Difference: −0.08

## C=C[C@H]1C[N@@]2CC[C@H]1C[C@H]2[C@H](O)c1ccnc2ccc(OC)cc12 [Quinine]
[1]; [12]
  Cholesterol-free: 1.498
[1]; [13]
  Difference: −0.37
[2]; [20]
  Difference: −0.10

## Maraviroc
[1]; [3]
  Cholesterol-free: 0.6337
[1]; [4]
  Complete: 0.8933
[1]; [21]
  Difference: 0.26
[2]; [7]
  Difference: 0.03

## Flecainide (acetate)
[1]; [3]
  Cholesterol-free: 0.7015
[1]; [4]
  Complete: 1.125
[1]; [8]
  Difference: 0.42
[2]; [5]
  Cholesterol-free media + simvastatin (0.04 μM): 1.399
[2]; [6]
  Complete Media: 2.119
[2]; [11]
  Difference: 0.72

## CC(C)(O)c1ccccc1CC[C@@H](SCC1(CC(=O)O)CC1)c1cccc(/C=C/c2ccc3ccc(Cl)cc3n2)c1 [Montelukast (sodium)]
[1]; [23]
  Difference: −0.51
[1]; [24]
  Cholesterol-free: 1.599
[1]; [25]
  Complete: 1.09
[2]; [9]
  Cholesterol-free media + simvastatin (0.04 μM): 0.8464
[2]; [10]
  Complete Media: 0.9746
[2]; [11]
  Difference: 0.13
